The record followed here is ChEMBL document CHEMBL1201862, “PubChem BioAssay data set” (2004).

Among the test systems are UACC-257; SR; HOP-62; K562; SW-620; Malme-3M; SN12C; HCC 2998; SK-MEL-28; NCI/ADR-RES; MDA-N; LOX IMVI; NCI-H23; OVCAR-4; EKVX; SF-539; A549; OVCAR-8; SK-OV-3; UACC-62.
Assay in all cases: NCI-60 cell line screen, 48 h

SMILES strings stand for the structures.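 Test compounds were applied to cells in 96-well plates for 48 hours at 5 doses. GI50: concentration for 50% inhibition of growth.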 Calls of active or inactive are those of the source. No stated cut-off is given here; in the data, active = GI50 up to about 1.1 µM and inactive = higher. Where only a bound is given, the exact number is not on record here.

Turning to `O=C(NCc1ccccc1)c1c(O)nc2ccccc2c1O`, the GI50 in the experiment on UACC-257, in the experiment with SR, with HOP-62, with K562, in the experiment on SW-620 and in the experiment with Malme-3M was > 100 µM (inactive) in each case. Besides, the GI50 in the experiment with SN12C, in the experiment with HCC 2998, in the experiment with SK-MEL-28, with NCI/ADR-RES, in the experiment with MDA-N and in the experiment with LOX IMVI was > 100 µM (inactive) each time. The GI50 in the experiment on NCI-H23, in the experiment with OVCAR-4, in the experiment with EKVX, in the experiment with SF-539, in the experiment on A549 and in the experiment with OVCAR-8 was > 100 µM (inactive) throughout.
Take `CSc1ccc(/C=C/c2ccnc3ccccc23)cc1`: the GI50 with UACC-257 is 18.4 µM (inactive); in the experiment with SR, 5.64 µM (inactive); in the experiment on HOP-62, 20.3 µM (inactive); in the experiment with K562 it was 5.47 µM (inactive); with SW-620, 14 µM (inactive); with Malme-3M, 17.6 µM (inactive). Further, the GI50 with SN12C is 15.5 µM (inactive); with HCC 2998 it was 13.9 µM (inactive); in the experiment on SK-MEL-28 it was 17.4 µM (inactive); with NCI/ADR-RES, 9.73 µM (inactive); in the experiment with SK-OV-3, 16 µM (inactive); with MDA-N it was 13.7 µM (inactive). Moreover, the GI50 in the experiment with LOX IMVI was 12.7 µM (inactive); in the experiment with NCI-H23, 11.8 µM (inactive); in the experiment with EKVX, 10.4 µM (inactive); with SF-539, 17.6 µM (inactive); in the experiment on A549 it was 12.5 µM (inactive); in the experiment on OVCAR-8, 15.5 µM (inactive).
As to `CCOC(=O)c1sc2nc(SC)nc3c2c1N=CN3c1ccc(Br)cc1`, the GI50 with UACC-257 was > 100 µM (inactive); in the experiment with SR, > 100 µM (inactive); in the experiment on HOP-62, 21.7 µM (inactive); in the experiment on K562 it was > 100 µM (inactive); in the experiment with SW-620, > 100 µM (inactive); in the experiment on Malme-3M it was > 100 µM (inactive). Besides, the GI50 in the experiment with SN12C, with HCC 2998, in the experiment on SK-MEL-28, in the experiment on UACC-62, with NCI/ADR-RES and with SK-OV-3 was > 100 µM (inactive) in each case. The GI50 in the experiment on MDA-N, in the experiment with LOX IMVI, in the experiment on NCI-H23, with OVCAR-4, in the experiment on EKVX and with A549 was > 100 µM (inactive) throughout. Also, the GI50 in the experiment with OVCAR-8 is > 100 µM (inactive).
`Cn1c(=O)c(C(=O)Nc2nc(C34CC5CC(CC(C5)C3)C4)cs2)c(O)c2ccccc21`: the GI50 was > 100 µM (inactive) with UACC-257; 38.2 µM (inactive) with SR; 10.7 µM (inactive) in the experiment with HOP-62; 40 µM (inactive) in the experiment with K562; > 100 µM (inactive) in the experiment with SW-620; > 100 µM (inactive) with Malme-3M. Moreover, the GI50 is > 100 µM (inactive) in the experiment on SN12C; > 100 µM (inactive) in the experiment with HCC 2998; > 100 µM (inactive) with SK-MEL-28; 13.2 µM (inactive) in the experiment on NCI/ADR-RES; > 100 µM (inactive) in the experiment with MDA-N; > 100 µM (inactive) in the experiment on LOX IMVI. Further, the GI50 is > 100 µM (inactive) with NCI-H23; > 100 µM (inactive) in the experiment with OVCAR-4; > 100 µM (inactive) in the experiment with EKVX; > 100 µM (inactive) with SF-539; 79.8 µM (inactive) in the experiment with A549; > 100 µM (inactive) in the experiment on OVCAR-8.
As for `CSc1c(C#N)c(S)n(-c2ccc(Cl)cc2)c(=O)c1C#N`, the GI50 in the experiment with UACC-257 is > 100 µM (inactive); in the experiment on SR, 33 µM (inactive); with K562, 63 µM (inactive); in the experiment with SW-620, > 100 µM (inactive); in the experiment on Malme-3M it was > 100 µM (inactive); in the experiment on SN12C it was > 100 µM (inactive). Besides, the GI50 in the experiment on HCC 2998 was > 100 µM (inactive); with SK-MEL-28, > 100 µM (inactive); in the experiment on UACC-62, 51.2 µM (inactive); with NCI/ADR-RES, 39.8 µM (inactive); in the experiment on SK-OV-3, > 100 µM (inactive); with MDA-N, > 100 µM (inactive). Also, the GI50 is > 100 µM (inactive) in the experiment with LOX IMVI; 39.6 µM (inactive) in the experiment with NCI-H23; 46.1 µM (inactive) in the experiment with OVCAR-4; > 100 µM (inactive) with EKVX; > 100 µM (inactive) with SF-539; > 100 µM (inactive) with A549. Also, the GI50 with OVCAR-8 was 74.1 µM (inactive).
On to `CC1(C)CC(=O)c2c(-c3ccc(Cl)cc3)c(C#N)c(=S)n(C3OC(CO)C(O)C(O)C3O)c2C1` (stereo not drawn), for which the GI50 with UACC-257 is 28.4 µM (inactive); with SR, 22 µM (inactive); in the experiment with HOP-62, 69.5 µM (inactive); in the experiment with K562, 13.6 µM (inactive); in the experiment on SW-620, 36.6 µM (inactive); in the experiment on Malme-3M, 31 µM (inactive). Moreover, the GI50 in the experiment with SN12C was 31.7 µM (inactive); in the experiment on HCC 2998 it was 36.7 µM (inactive); in the experiment with SK-MEL-28 it was 34.8 µM (inactive); in the experiment on UACC-62, 16.8 µM (inactive); with NCI/ADR-RES, 34.4 µM (inactive); in the experiment with MDA-N, 19.1 µM (inactive). Besides, the GI50 in the experiment on LOX IMVI was 20.1 µM (inactive); in the experiment with NCI-H23, 50.8 µM (inactive); in the experiment with OVCAR-4, 49.2 µM (inactive); in the experiment with SF-539, 25.4 µM (inactive); in the experiment on A549, 36.1 µM (inactive); in the experiment with OVCAR-8, 35.7 µM (inactive).
For the molecule `Cc1ccc2c(ccc3c[n+]4ccccc4c(C)c32)c1.[O-][Cl+3]([O-])([O-])[O-]`, the GI50 in the experiment with UACC-257 was 1.34 µM (inactive); with SR, 1.21 µM (inactive); in the experiment with HOP-62, 2.44 µM (inactive); in the experiment on K562, 4.16 µM (inactive); in the experiment on SW-620 it was 0.962 µM (active); in the experiment with Malme-3M, 1.32 µM (inactive). For the same molecule, the GI50 in the experiment on SN12C is 0.402 µM (active); in the experiment on HCC 2998, 2.77 µM (inactive); with SK-MEL-28, 3.17 µM (inactive); in the experiment on NCI/ADR-RES, > 100 µM (inactive); in the experiment with SK-OV-3 it was 10.3 µM (inactive); with MDA-N, > 100 µM (inactive). The GI50 in the experiment with LOX IMVI was 11.7 µM (inactive); in the experiment with NCI-H23 it was 1.32 µM (inactive); in the experiment with OVCAR-4 it was 2.07 µM (inactive); in the experiment with EKVX, 62.4 µM (inactive); with SF-539 it was 2.3 µM (inactive); in the experiment on A549, 0.373 µM (active). Besides, in the experiment with OVCAR-8, the GI50 is 2.29 µM (inactive).
`N=C(N)Nc1ccc(CC(N)C(=O)O)cc1` (stereo not drawn): the GI50 with UACC-257, in the experiment with SR, in the experiment with HOP-62, with K562, with SW-620 and in the experiment on Malme-3M was > 12.5 µM (inactive) throughout. Also, the GI50 in the experiment with SN12C, in the experiment with HCC 2998, with SK-MEL-28, with UACC-62, in the experiment on NCI/ADR-RES and in the experiment with SK-OV-3 was > 12.5 µM (inactive) each time. Besides, the GI50 in the experiment with MDA-N, in the experiment with LOX IMVI, with NCI-H23, in the experiment on OVCAR-4, with EKVX and with A549 was > 12.5 µM (inactive) throughout. In the experiment on OVCAR-8, the GI50 was > 12.5 µM (inactive).
